Experimental data taken from patent US7138361B2, “Herbicidal heterocycles” (E. I. du Pont de Nemours and Company, priority 2000, dated 2006).

Assays:
Format in all cases: in vivo
[1] = tested on: wheat (Triticum aestivum); assay: Test B postemergence
Procedure, shortened: (§1)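 Ratings on a 0 to 100 visual scale (100 complete control) compare treated plants with controls 13 to 15 days after application. Treatments were pre- or postemergence sprays of compound in non-phytotoxic solvent with surfactant.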

[2] = tested on: Surinam grass (Brachiaria decumbens); assay: Test B postemergence
Procedure, shortened: as §1

[3] = tested on: wild oat (Avena fatua); assay: Test B postemergence
Procedure, shortened: as §1

[4] = tested on: pigweed (Amaranthus retroflexus); assay: Test B postemergence
Procedure, shortened: as §1

[5] = tested on: velvetleaf (Abutilon theophrasti); assay: Test B postemergence
Procedure, shortened: as §1

[6] = tested on: crabgrass (Digitaria sanguinalis); assay: Test B postemergence
Procedure, shortened: as §1

[7] = tested on: corn (Zea mays); assay: Test B postemergence
Procedure, shortened: as §1

[8] = tested on: cocklebur (Xanthium strumarium); assay: Test B postemergence
Procedure, shortened: as §1

[9] = tested on: morning glory (Ipomoea hederacea); assay: Test B postemergence
Procedure, shortened: as §1

[10] = tested on: barnyardgrass (Echinochloa crus-galli); assay: Test B postemergence
Procedure, shortened: as §1

[11] = tested on: giant foxtail (Setaria faberii); assay: Test B postemergence
Procedure, shortened: as §1

[12] = tested on: blackgrass (Alopecurus myosuroides); assay: Test B postemergence
Procedure, shortened: as §1

[13] = tested on: lambsquarters (Chenopodium album); assay: Test B postemergence
Procedure, shortened: as §1

[14] = tested on: duck salad (Heteranthera limosa); assay: Test C flooded paddy test; conditions: for Ducksalad plant response rating: Flooded Paddy, scale 0 to 100, 0 no effect, 100 complete control; for Plant response rating, Ducksalad: flooded paddy test, scale 0 to 100 (0 no effect, 100 complete control)
Procedure, shortened: (§2)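 Rice and three paddy weeds were grown to the 2-leaf stage under flooded conditions, then treated and kept in a greenhouse for 12–14 days. Response was rated visually against untreated controls on a 0–100 scale, where 100 is complete control.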

[15] = tested on: rice (Oryza saliva); assay: Test C flooded paddy test; conditions: for Rice plant response rating: Flooded Paddy, scale 0 to 100, 0 no effect, 100 complete control; for Plant response rating, Rice: flooded paddy test, scale 0 to 100 (0 no effect, 100 complete control)
Procedure, shortened: as §2

[16] = tested on: smallflower flatsedge (Cyperus difformis); assay: Test C flooded paddy test; conditions: for Flatsedge plant response rating: Flooded Paddy, scale 0 to 100, 0 no effect, 100 complete control; for Plant response rating, Flatsedge: flooded paddy test, scale 0 to 100 (0 no effect, 100 complete control)
Procedure, shortened: as §2

[17] = tested on: barnyardgrass (Echinochloa crus-galli); assay: Test C flooded paddy test; conditions: for Barnyardgrass plant response rating: Flooded Paddy, scale 0 to 100, 0 no effect, 100 complete control; for Plant response rating, Barnyardgrass: flooded paddy test, scale 0 to 100 (0 no effect, 100 complete control)
Procedure, shortened: as §2

[18] = tested on: Surinam grass (Brachiaria decumbens); assay: Test B preemergence
Procedure, shortened: as §1

[19] = tested on: pigweed (Amaranthus retroflexus); assay: Test B preemergence
Procedure, shortened: as §1

[20] = tested on: velvetleaf (Abutilon theophrasti); assay: Test B preemergence
Procedure, shortened: as §1

[21] = tested on: crabgrass (Digitaria sanguinalis); assay: Test B preemergence
Procedure, shortened: as §1

[22] = tested on: rice (Oryza saliva); assay: Test B preemergence
Procedure, shortened: as §1

[23] = tested on: corn (Zea mays); assay: Test B preemergence
Procedure, shortened: as §1

[24] = tested on: cocklebur (Xanthium strumarium); assay: Test B preemergence
Procedure, shortened: as §1

[25] = tested on: morning glory (Ipomoea hederacea); assay: Test B preemergence
Procedure, shortened: as §1

[26] = tested on: barnyardgrass (Echinochloa crus-galli); assay: Test B preemergence
Procedure, shortened: as §1

[27] = tested on: giant foxtail (Setaria faberii); assay: Test B preemergence
Procedure, shortened: as §1

[28] = tested on: lambsquarters (Chenopodium album); assay: Test B preemergence
Procedure, shortened: as §1

[29] = Rate 125 g/ha, scale 0 to 100, 0 no effect, 100 complete control
[30] = Rate 500 g/ha, scale 0 to 100, 0 is no effect, 100 is complete control, 13 to 15 days
[31] = Preemergence, Rate 500 g/ha, scale 0 to 100, 0 no effect, 100 complete control
[32] = preemergence, Rate 125 g/ha, scale of 0 to 100 where 0 is no effect and 100 is complete control, 13 to 15 days

CCCCC(CCCC)c1ccn(C2SCN(c3cccc(C(F)(F)F)c3)C2=O)n1 (centres unmarked) [Compound 116]
Plant response rating, Wheat [1, 29]: 20 | Plant response rating, Wheat [1, 30]: 20 | Plant response rating, Surinam grass [2, 29]: 0 | Plant response rating, Surinam grass [2, 30]: 20 | Plant response rating, Wild Oat [3, 29]: 30 | Plant response rating, Wild Oat [3, 30]: 50 | Plant response rating, Pigweed [4, 29]: 50 | Plant response rating, Pigweed [4, 30]: 70 | Plant response rating, Velvetleaf [5, 29]: 20 | Plant response rating, Velvetleaf [5, 30]: 30 | Plant response rating, Crabgrass [6, 29]: 20 | Plant response rating, Crabgrass [6, 30]: 40 | Plant response rating, Corn [7, 29]: 20 | Plant response rating, Corn [7, 30]: 20 | Plant response rating, Cocklebur [8, 29]: 30 | Plant response rating, Cocklebur [8, 30]: 50 | Plant response rating, Morningglory [9, 29]: 30 | Plant response rating, Morningglory [9, 30]: 30 | Plant response rating, Barnyardgrass [10, 29]: 0 | Plant response rating, Barnyardgrass [10, 30]: 20 | Plant response rating, Foxtail, Giant [11, 29]: 0 | Plant response rating, Foxtail, Giant [11, 30]: 0 | Plant response rating, Blackgrass [12, 29]: 0 | Plant response rating, Blackgrass [12, 30]: 60 | Plant response rating, Lambsquarters [13, 29]: 70 | Plant response rating, Lambsquarters [13, 30]: 90 | Ducksalad plant response rating ([14]; Rate 250 g/ha): 0 | Ducksalad plant response rating ([14]; Rate 500 g/ha): 0 | Plant response rating, Ducksalad ([14]; Rate 62 g/ha): 0 | Plant response rating, Ducksalad ([14]; Rate 125 g/ha): 0 | Rice plant response rating ([15]; Rate 250 g/ha): 0 | Rice plant response rating ([15]; Rate 500 g/ha): 0 | Plant response rating, Rice ([15]; Rate 62 g/ha): 0 | Plant response rating, Rice ([15]; Rate 125 g/ha): 0 | Flatsedge plant response rating ([16]; Rate 250 g/ha): 0 | Flatsedge plant response rating ([16]; Rate 500 g/ha): 0 | Plant response rating, Flatsedge ([16]; Rate 62 g/ha): 0 | Plant response rating, Flatsedge ([16]; Rate 125 g/ha): 0 | Barnyardgrass plant response rating ([17]; Rate 250 g/ha): 0 | Barnyardgrass plant response rating ([17]; Rate 500 g/ha): 0 | Plant response rating, Barnyardgrass ([17]; Rate 62 g/ha): 0 | Plant response rating, Barnyardgrass ([17]; Rate 125 g/ha): 0 | Plant response rating, Surinam grass [18, 31]: 0 | Plant response rating, Surinam grass [18, 32]: 0 | Plant response rating, Pigweed [19, 31]: 0 | Plant response rating, Pigweed [19, 32]: 0 | Plant response rating, Velvetleaf [20, 31]: 0 | Plant response rating, Velvetleaf [20, 32]: 0 | Plant response rating, Crabgrass [21, 31]: 0 | Plant response rating, Crabgrass [21, 32]: 0 | Plant response rating, Rice [22, 31]: 0 | Plant response rating, Rice [22, 32]: 0 | Plant response rating, Corn [23, 31]: 0 | Plant response rating, Corn [23, 32]: 0 | Plant response rating, Cocklebur [24, 31]: 0 | Plant response rating, Cocklebur [24, 32]: 0 | Plant response rating, Morningglory [25, 31]: 0 | Plant response rating, Morningglory [25, 32]: 0 | Plant response rating, Barnyardgrass [26, 31]: 0 | Plant response rating, Barnyardgrass [26, 32]: 0 | Plant response rating, Foxtail, Giant [27, 31]: 0 | Plant response rating, Foxtail, Giant [27, 32]: 0 | Plant response rating, Lambsquarters [28, 31]: 0 | Plant response rating, Lambsquarters [28, 32]: 0

Cc1cccc(N2CCC(n3ccc(C(C)(C)C)n3)C2=O)c1 (centres unmarked) [Compound 112]
Plant response rating, Wheat [1, 29]: 40 | Plant response rating, Wheat [1, 30]: 40 | Plant response rating, Surinam grass [2, 29]: 0 | Plant response rating, Surinam grass [2, 30]: 100 | Plant response rating, Wild Oat [3, 29]: 30 | Plant response rating, Wild Oat [3, 30]: 60 | Plant response rating, Pigweed [4, 29]: 60 | Plant response rating, Pigweed [4, 30]: 80 | Plant response rating, Velvetleaf [5, 29]: 0 | Plant response rating, Velvetleaf [5, 30]: 0 | Plant response rating, Crabgrass [6, 29]: 30 | Plant response rating, Crabgrass [6, 30]: 30 | Plant response rating, Corn [7, 29]: 0 | Plant response rating, Corn [7, 30]: 0 | Plant response rating, Cocklebur [8, 29]: 0 | Plant response rating, Cocklebur [8, 30]: 0 | Plant response rating, Morningglory [9, 29]: 20 | Plant response rating, Morningglory [9, 30]: 50 | Plant response rating, Barnyardgrass [10, 29]: 0 | Plant response rating, Barnyardgrass [10, 30]: 20 | Plant response rating, Foxtail, Giant [11, 29]: 0 | Plant response rating, Foxtail, Giant [11, 30]: 0 | Plant response rating, Blackgrass [12, 29]: 0 | Plant response rating, Blackgrass [12, 30]: 0 | Plant response rating, Lambsquarters [13, 29]: 30 | Plant response rating, Lambsquarters [13, 30]: 30 | Ducksalad plant response rating ([14]; Rate 250 g/ha): 20 | Ducksalad plant response rating ([14]; Rate 500 g/ha): 30 | Plant response rating, Ducksalad ([14]; Rate 62 g/ha): 0 | Plant response rating, Ducksalad ([14]; Rate 125 g/ha): 0 | Rice plant response rating ([15]; Rate 250 g/ha): 20 | Rice plant response rating ([15]; Rate 500 g/ha): 70 | Plant response rating, Rice ([15]; Rate 62 g/ha): 0 | Plant response rating, Rice ([15]; Rate 125 g/ha): 0 | Flatsedge plant response rating ([16]; Rate 250 g/ha): 100 | Flatsedge plant response rating ([16]; Rate 500 g/ha): 100 | Plant response rating, Flatsedge ([16]; Rate 62 g/ha): 20 | Plant response rating, Flatsedge ([16]; Rate 125 g/ha): 50 | Barnyardgrass plant response rating ([17]; Rate 250 g/ha): 20 | Barnyardgrass plant response rating ([17]; Rate 500 g/ha): 60 | Plant response rating, Barnyardgrass ([17]; Rate 62 g/ha): 0 | Plant response rating, Barnyardgrass ([17]; Rate 125 g/ha): 0 | Plant response rating, Surinam grass [18, 31]: 30 | Plant response rating, Surinam grass [18, 32]: 10 | Plant response rating, Pigweed [19, 31]: 100 | Plant response rating, Pigweed [19, 32]: 100 | Plant response rating, Velvetleaf [20, 31]: 0 | Plant response rating, Velvetleaf [20, 32]: 0 | Plant response rating, Crabgrass [21, 31]: 100 | Plant response rating, Crabgrass [21, 32]: 100 | Plant response rating, Rice [22, 31]: 100 | Plant response rating, Rice [22, 32]: 0 | Plant response rating, Corn [23, 31]: 30 | Plant response rating, Corn [23, 32]: 0 | Plant response rating, Cocklebur [24, 31]: 0 | Plant response rating, Cocklebur [24, 32]: 0 | Plant response rating, Morningglory [25, 31]: 30 | Plant response rating, Morningglory [25, 32]: 30 | Plant response rating, Barnyardgrass [26, 31]: 100 | Plant response rating, Barnyardgrass [26, 32]: 90 | Plant response rating, Foxtail, Giant [27, 31]: 100 | Plant response rating, Foxtail, Giant [27, 32]: 100 | Plant response rating, Lambsquarters [28, 31]: 100 | Plant response rating, Lambsquarters [28, 32]: 100
